Test results reported in PMC6331850, “Evaluation of the Cytotoxicity of Structurally Correlated p-Menthane Derivatives” (Molecules, 2015).
≈ marks a conversion by molar mass, not a printed value.

Assays:
[1] = system: OVCAR-8, HCT-116, and SF-295 human tumor cell lines; assay: MTT cytotoxicity assay, range over the three tumor cell lines; assay type: cell-based; settings: for inhibition at 25 µg/mL: read-out: GI, range over the three cell lines
Method: (§1) The cytotoxicity of the 18 compounds was tested against OVCAR-8 (ovarian adenocarcinoma), HCT-116 (colon carcinoma), SF-295 (glioblastoma), and HL-60 (leukemia) human cancer cell lines, all obtained from the National Cancer Institute, Bethesda, MD, USA. Cells were grown in RPMI-1640 medium supplemented with 10% fetal bovine serum, 2 mM glutamine, 100 µg/mL streptomycin, and 100 U/mL penicillin, and incubated at 37 °C in a 5% CO2 atmosphere.
(§2) Tumor cell growth was determined by the ability of living cells to reduce the yellow dye 3-(4,5-dimethyl-2-thiazolyl)-2,5-diphenyl-2H-tetrazolium bromide (MTT; Sigma Chemical Co., St. Louis, MO, USA) to a purple formazan product, as described by Mossman. For all experiments, cells were seeded in 96-well plates (0.1 × 10^6 cells/mL in 100 μL medium). After 24 h, the 18 compounds (25 μg/mL), were dissolved in 0.7% dimethyl sulfoxide (DMSO), and were added to each well (three independent experiments, performed in triplicate). Then, the cells were incubated for 72 h at 37 °C in a 5% CO2 atmosphere. The experiment was performed as three independent experiments, using DMSO at 1%, and doxorubicin at […] as negative and positive controls, respectively. Doxorubicin, purity >98%; Sigma Chemical Co.).
(§3) At the end of incubation, the plates were centrifuged, and the medium was replaced by fresh medium (150 μL) containing 0.5 mg/mL MTT. Three hours later, the formazan product was dissolved in 150 μL DMSO, and absorbance was measured using a multiplate reader (DTX 880 Multimode Detector, Beckman Coulter Inc., Packard, ON, Canada). The treatment effects were expressed as the percentage of control absorbance of reduced dye at 595 nm. All absorbance values were converted into a cell growth inhibition percentage (GI%) by the following formula: [GI% = 100 − [(T/C) × 100%] (1) where C is the absorbance for the negative control, and T is the absorbance in the presence of the tested compound.
The compounds that caused greater degree of cell growth inhibition and which have not been described in the literature for cytotoxic activity against tumor cell lines were evaluated for their median inhibitory concentration able to induce 50% of maximal effect (IC50). […] In addition, the IC50 was determined against HL-60 only for the most cytotoxic compound 16.

SF-295 (glioblastoma) = assay: MTT cytotoxicity assay, SF-295; assay type: cell-based; settings: Homo sapiens, 25 μg/mL, 72 h incubation, mean of three independent experiments, read-out: Cell growth inhibition percentage, SF-295 IG%
Method: as §1, §2
as §3, with “compound. […]” for “compound.”

[2] = system: HCT-116 (colon carcinoma); assay: MTT cytotoxicity assay, HCT-116; assay type: cell-based; settings: Homo sapiens, 25 μg/mL, 72 h incubation, mean of three independent experiments, read-out: Cell growth inhibition percentage, HCT-116 IG%
Method: as §1, §2
as §3, with “compound. […]” for “compound.”

[3] = system: OVCAR-8 (ovarian adenocarcinoma); assay: MTT cytotoxicity assay, OVCAR-8; assay type: cell-based; settings: Homo sapiens, 25 μg/mL, 72 h incubation, mean of three independent experiments, read-out: Cell growth inhibition percentage, OVCAR-8 IG%
Method: as §1, §2
as §3, with “compound. […]” for “compound.”

mouse erythrocytes = assay: Hemolytic assay; assay type: cell-based; settings: up to highest tested concentration 500 μg/mL; data not shown
Method: The test was performed in 96-well plates using a 2% mouse erythrocyte suspension in 0.85% NaCl containing 10 mm CaCl2, following the method as described by Jimenez and collaborators. Various concentrations of compound 16 (0–500 µg/mL) were added to the suspension of red blood cells obtained from mice according to methodology adapted from Kang and collaborators, Pita and collaborators, and Bezerra and collaborators. The tubes with the compound 16 erythrocyte mixtures were incubated on a mixer for 60 min and then centrifuged at 3000 rpm for 5 min. […] After incubation at room temperature for 30 min and centrifugation, the supernatant was removed and the liberated hemoglobin was measured spectrophotometrically as the absorbance at 540 nm.

HL-60 (leukemia) = assay: MTT cytotoxicity assay, HL-60; assay type: cell-based; settings: Homo sapiens, 72 h incubation, read-out: IC50 (95% confidence interval), HL-60
Method: as §1
Tumor cell growth was determined by the ability of living cells to reduce the yellow dye 3-(4,5-dimethyl-2-thiazolyl)-2,5-diphenyl-2H-tetrazolium bromide (MTT; Sigma Chemical Co., St. Louis, MO, USA) to a purple formazan product, as described by Mossman. […]
as §3, with “compound. […]” for “compound.”

HL-60 cells [4] = assay: Morphological analysis by fluorescence microscopy (acridine orange/ethidium bromide); assay type: cell-based, human; settings: 24 h
Method: HL-60 cells were pelleted and re-suspended in 20 µL of PBS. Then, 1 µL of aqueous acridine orange/ethidium bromide solution (AO/EB, 100 µg/mL) was added, and the cells were observed under a fluorescence microscope. Three hundred cells were counted per sample and classified as viable, apoptotic or necrotic.

HL-60 cells [5] = assay: Morphological analysis with hematoxylin-eosin staining; assay type: cell-based, human; settings: 0.32, 0.64, 1.28 µg/mL; 24 h incubation
Method: For morphological cell analysis, we used hematoxylin-eosin and examined using light microscopy. HL-60 cells were seeded (0.3 × 10^6 cells/mL) in the absence or presence of different concentrations of compound 16 (0.32, 0.64 and 1.28 µg/mL). After an incubation period of 24 h, 50 µL of cell suspension were transferred to cytospin slides, fixed with metanol for 60 s, and stained with hematoxylin-eosin [43].

HL-60 cells [6] = assay: Cell viability, trypan blue dye exclusion test; assay type: cell-based, human; settings: 0.32, 0.64, 1.28 µg/mL; 24 h incubation
Method: The cell viability was determined by the trypan blue dye exclusion test. HL-60 cells were seeded (0.3 × 10^6 cells/mL) in absence or presence of different concentrations of compound 16 (0.32, 0.64, and 1.28 µg/mL). After the incubation period of 24 h, 90 µL were removed from the cell suspension and added to 10 µL of trypan blue. Viable and non-viable cells were differentiated and counted in a Neubauer chamber.

[7] = Homo sapiens, 72 h, 25 µg/mL, MTT, 72 h, HCT-116, OVCAR-8, SF-295

C=C(C)[C@@H]1CCC2(C)OC2C1 (single isomer, unassigned; (+)) [Compound 12, (+)-Limonene 1,2-epoxide]
inhibition at 25 µg/mL [1, 7]: < 50% | fold more cytotoxic than 5 (GI ratio) ([1]; compared with (−)-carvone epoxide (5), 25 µg/mL): 2.5- to 11 fold | inhibition at 25 µg/mL (SF-295 (glioblastoma)): 58.5% | inhibition at 25 µg/mL [2]: 73.1% | inhibition at 25 µg/mL [3]: 93.1%

CC1=CC[C@@H](C(C)(C)O)CC1O (single isomer, unassigned; (-)) [Compound 13, (−)-Sobrerol]
inhibition at 25 µg/mL (SF-295 (glioblastoma)): 34.2% | inhibition at 25 µg/mL [2]: 9.78% | inhibition at 25 µg/mL [3]: 41.4%

CC1([C@@H]2CC=C(C=O)CC2)CO1 (single isomer, unassigned; (-)) [Compound 16, (−)-Perillaldehyde 8,9-epoxide]
hemolysis (lysis of mouse erythrocytes) (mouse erythrocytes): not hemolytic | inhibition at 25 µg/mL [1, 7]: 96.3 to 99.9% | IC50 ([1]; Homo sapiens, MTT, 72 h, HCT-116, OVCAR-8, SF-295): 1.03 to 1.75 µg/mL (≈ 6.2 to 10.5 µM) | inhibition at 25 µg/mL (SF-295 (glioblastoma)): 99.9% | inhibition at 25 µg/mL [2]: 98.6% | IC50 (HL-60 (leukemia)): 0.64 µg/mL (≈ 3.85 µM) | inhibition at 25 µg/mL [3]: 96.3% | cell death process, three concentrations tested (HL-60 cells [4]; 0.32, 0.64, 1.28 µg/mL, Figures 3 and 4): cell death by apoptosis | cell morphology, acridine orange/ethidium bromide (HL-60 cells [4]; 0.32, 0.64, 1.28 µg/mL, concentration-dependent, p < 0.05): morphology consistent with apoptosis and necrosis | cell death process at the higher doses (HL-60 cells [4]; doses of 0.64 and 1.28): necrotic cell death | cell morphology, hematoxylin-eosin (HL-60 cells [5]): morphology consistent with apoptosis | effect on number of viable / non-viable cells (HL-60 cells [6]): reduction in the number of viable cells

C=C(C)[C@@H]1CC=C(C)C(=O)C1 [Compound 1, (−)-Carvone]
inhibition at 25 µg/mL (SF-295 (glioblastoma)): 12.3% | inhibition at 25 µg/mL [2]: 11.9% | inhibition at 25 µg/mL [3]: 2.28%

C=C(C)[C@H]1CC=C(C)C(=O)C1 [Compound 2, (+)-Carvone]
inhibition at 25 µg/mL [1, 7]: < 50% | inhibition at 25 µg/mL (SF-295 (glioblastoma)): 34.4% | inhibition at 25 µg/mL [2]: 46.1% | inhibition at 25 µg/mL [3]: 48.1%

CC1=CC[C@@H](C(C)(C)O)CC1=O [Compound 3, (−)-8-Hydroxycarvotanacetone]
GI, range over the three cell lines ([1]; 25 µg/mL, MTT, 72 h, HCT-116, OVCAR-8, SF-295): 61.59% to 94.01% | inhibition at 25 µg/mL [1, 7]: 61.6 to 94% | inhibition at 25 µg/mL (SF-295 (glioblastoma)): 61.6% | inhibition at 25 µg/mL [2]: 75.2% | inhibition at 25 µg/mL [3]: 94%

CC1=CC[C@H](C(C)(C)O)CC1=O [Compound 4, (+)-8-Hydroxycarvotanacetone]
inhibition at 25 µg/mL (SF-295 (glioblastoma)): 16.4% | inhibition at 25 µg/mL [2]: 4.76% | inhibition at 25 µg/mL [3]: 3.12%

C=C(C)[C@@H]1CC(=O)[C@@]2(C)O[C@H]2C1 [Compound 5, (−)-Carvone epoxide]
inhibition at 25 µg/mL (SF-295 (glioblastoma)): 10.9% | inhibition at 25 µg/mL [2]: 29.2% | inhibition at 25 µg/mL [3]: 8.21%

C=C(C)[C@@H]1C[C@H](O)[C@]2(C)O[C@@H]2C1 [Compound 6, (+)-Carveol epoxide]
inhibition at 25 µg/mL (SF-295 (glioblastoma)): 35.4% | inhibition at 25 µg/mL [2]: 12.4% | inhibition at 25 µg/mL [3]: 4.58%

C=C(C)[C@@H]1CC=C(C)[C@H](O)C1 [Compound 7, (−)-cis-carveol]
inhibition at 25 µg/mL (SF-295 (glioblastoma)): 21.2% | inhibition at 25 µg/mL [2]: 9% | inhibition at 25 µg/mL [3]: 3.61%

CC(=O)OC(C)(C)[C@@H]1CC=C(C)C(=O)C1 [Compound 8, (−)-8-Acetoxycarvotanacetone]
inhibition at 25 µg/mL (SF-295 (glioblastoma)): 30.5% | inhibition at 25 µg/mL [2]: 10.4% | inhibition at 25 µg/mL [3]: 1.62%

CC(C)=C1CC[C@@H](C)CC1=O [Compound 9, (+)-Pulegone]
inhibition at 25 µg/mL (SF-295 (glioblastoma)): 27.4% | inhibition at 25 µg/mL [2]: 10.2% | inhibition at 25 µg/mL [3]: 14.4%

C[C@@H]1CCC2(OC2(C)C)C(=O)C1 (stereo partly drawn) [Compound 10, (R)-pulegone oxide]
inhibition at 25 µg/mL (SF-295 (glioblastoma)): 16% | inhibition at 25 µg/mL [2]: 43.2% | inhibition at 25 µg/mL [3]: 17.6%

C=C(C)[C@@H]1CC[C@@H](C)CC1=O [Compound 11, (−)-trans-isopulegone]
inhibition at 25 µg/mL (SF-295 (glioblastoma)): 7.56% | inhibition at 25 µg/mL [2]: 19% | inhibition at 25 µg/mL [3]: 5.98%

C=C(C)[C@@H]1CC=C(CO)CC1 [Compound 14, (S)-(−)-perillyl alcohol]
inhibition at 25 µg/mL [1, 7]: 90.9 to 95.8% | inhibition at 25 µg/mL (SF-295 (glioblastoma)): 90.9% | inhibition at 25 µg/mL [2]: 95.8% | inhibition at 25 µg/mL [3]: 91.7%

C=C(C)[C@@H]1CC=C(C=O)CC1 [Compound 15, (−)-Perillaldehyde]
inhibition at 25 µg/mL [1, 7]: 59.3 to 83% | inhibition at 25 µg/mL (SF-295 (glioblastoma)): 59.3% | inhibition at 25 µg/mL [2]: 83% | inhibition at 25 µg/mL [3]: 70.2%

C=C(C)[C@@H]1CC=C(COC(C)=O)CC1 [Compound 17, (−)-Perillyl acetate]
inhibition at 25 µg/mL (SF-295 (glioblastoma)): 16.4% | inhibition at 25 µg/mL [2]: 14.2% | inhibition at 25 µg/mL [3]: 3.06%

C=C(C)[C@@H]1CC=C(COC(=O)c2ccccc2)CC1 [Compound 18, (S)-perillyl benzoate]
inhibition at 25 µg/mL (SF-295 (glioblastoma)): 4.53% | inhibition at 25 µg/mL [2]: 5.02% | inhibition at 25 µg/mL [3]: 2.86%

COc1cccc2c1C(=O)c1c(O)c3c(c(O)c1C2=O)C[C@@](O)(C(=O)CO)C[C@@H]3O[C@H]1C[C@H](N)[C@H](O)[C@H](C)O1 [Doxorubicin, reference compound]
inhibition at 25 µg/mL (SF-295 (glioblastoma)): 99.6% | inhibition at 25 µg/mL [2]: 99.2% | inhibition at 25 µg/mL [3]: 100%
